From ChEMBL document CHEMBL1155330, “Schisanwilsonins A-G and related anti-HBV lignans from the fruits of Schisandra wilsoniana” (Bioorg Med Chem Lett, 2009) come the findings set out here.

Molecules are shown by their SMILES.

As a reminder, the inhibition in vivo is the share of the control response that was lost under treatment.

Data set [1] deals with Hepatitis B virus. Nature of the data set: Antiviral activity against Hepatitis B virus infected human HepG2.2.15 cells assessed as HBsAg secretion at 50 […] after 9 days by ELISA. The following applies: HepG2 2.2.15, 216 h. Format: functional.
The subject of data set [2] is Hepatitis B virus. Nature of the data set: Antiviral activity against Hepatitis B virus infected human HepG2.2.15 cells assessed as HBsAg secretion at 25 […] after 9 days by ELISA. The following applies: HepG2 2.2.15, 216 h. Format: functional. For orientation: In an ELISA, binding on a coated surface is turned into a signal by an enzyme label.
The nature of data set [3]: Cytotoxicity against human HepG2(2.2.15) cells at 200 ug/mL by MTT assay. The data set is classed as cell-based. The following applies: read-out: GI.
Data set [4] deals with Hepatitis B virus. Description: Antiviral activity against Hepatitis B virus infected human HepG2.2.15 cells assessed as HBeAg secretion at 25 […] after 9 days by ELISA. The data set is classed as functional. The following applies: HepG2 2.2.15, 216 h.
In data set [5] the test system is Hepatitis B virus. Description: Antiviral activity against Hepatitis B virus infected human HepG2.2.15 cells assessed as HBeAg secretion at 50 […] after 9 days by ELISA. The data set is classed as functional. The following applies: HepG2 2.2.15, 216 h.
Data set [6] can be described thus: Cytotoxicity against human HepG2(2.2.15) cells at 100 ug/mL by MTT assay. The data set is classed as cell-based. The following applies: read-out: GI. On the technique in general: Tetrazolium assays rely on reduction of a dye to a coloured formazan, in cell work by metabolically active cells.
Data set [7] concerns Hepatitis B virus. Nature of the data set: Antiviral activity against Hepatitis B virus infected human HepG2.2.15 cells assessed as HBeAg secretion at 200 […] after 9 days by ELISA. The data set is classed as functional. The following applies: HepG2 2.2.15, 216 h.
Data set [8] relates to Hepatitis B virus. Description: Antiviral activity against Hepatitis B virus infected human HepG2.2.15 cells assessed as HBsAg secretion at 200 […] after 9 days by ELISA. The data set is classed as functional. The following applies: HepG2 2.2.15, 216 h.
Data set [9] relates to Hepatitis B virus. Description: Antiviral activity against Hepatitis B virus infected human HepG2.2.15 cells assessed as HBeAg secretion at 100 […] after 9 days by ELISA. The data set is classed as functional. The following applies: HepG2 2.2.15, 216 h.
Data set [10] deals with Hepatitis B virus. Nature of the data set: Antiviral activity against Hepatitis B virus infected human HepG2.2.15 cells assessed as HBsAg secretion at 100 […] after 9 days by ELISA. The following applies: HepG2 2.2.15, 216 h. Format: functional.
Data set [11] can be described thus: Cytotoxicity against human HepG2(2.2.15) cells at 50 ug/mL by MTT assay. Format: cell-based. The following applies: read-out: GI.

As for `COc1cc2c(c(OC)c1OC)-c1c(cc3c(c1O)OCO3)C[C@H](C)[C@@](C)(O)[C@H]2OC(=O)c1ccccc1` [SCHISANWILSONIN C], the inhibition in vivo at 0.05 mg/kg was 0% in the data set with Hepatitis B virus [1] and 11.7% in the data set with Hepatitis B virus [5]. The inhibition in vivo at 0.025 mg/kg in the data set with Hepatitis B virus [2] came to 0%; with Hepatitis B virus [4], 11.6%. Further, the inhibition at 200 ug/mL in [3] was at least 25%. The inhibition at 100 ug/mL in data set [6] is at least 25%.
Consider `Nc1ccn([C@@H]2CS[C@H](CO)O2)c(=O)n1` [LAMIVUDINE], for which the inhibition in vivo at 0.2 mg/kg came to 34.5% with Hepatitis B virus [7] and 28.6% in the data set on Hepatitis B virus [8].
Turning to `C/C=C(\C)C(=O)O[C@H]1c2cc(OC)c(OC)c(OC)c2-c2c(cc(O)c(OC)c2O)C[C@H](C)[C@@]1(C)O` [SCHISANWILSONIN D], the figures for the inhibition in vivo at 0.05 mg/kg in the data set with Hepatitis B virus [1] and in the data set on Hepatitis B virus [5] were 19.5% and 16.5%, respectively. In addition, the inhibition in vivo at 0.025 mg/kg in the data set on Hepatitis B virus [2] was 12.5%; in the data set with Hepatitis B virus [4], 6.2%. Besides, the inhibition at 200 ug/mL in data set [3] was at least 25%. Moreover, the figures for the inhibition in vivo at 0.1 mg/kg with Hepatitis B virus [9] and in the data set on Hepatitis B virus [10] were 21.6% and 28.8%, respectively.
`COc1cc2c(c(OC)c1OC)-c1c(cc3c(c1O)OCO3)C[C@H](C)[C@@](C)(O)[C@H]2OC(C)=O` [SCHISANWILSONIN F]: the inhibition in vivo at 0.05 mg/kg with Hepatitis B virus [1] turned out to be 0%; with Hepatitis B virus [5], 6.7%. In addition, the inhibition in vivo at 0.025 mg/kg with Hepatitis B virus [2] was 0%; in the data set with Hepatitis B virus [4], 5.5%. In addition, the inhibition at 200 ug/mL in [3] is at least 25%. The inhibition in vivo at 0.1 mg/kg with Hepatitis B virus [9] was 9.3%; in the data set with Hepatitis B virus [10], 0%.
Take `COc1cc2c(c(OC)c1OC)-c1c(cc(O)c(OC)c1O)C[C@H](C)[C@@](C)(O)[C@H]2OC(=O)c1ccccc1` [SCHISANWILSONIN G]: the inhibition in vivo at 0.05 mg/kg is 0% in the data set on Hepatitis B virus [1] and 1.6% in the data set with Hepatitis B virus [5]. Moreover, the inhibition in vivo at 0.2 mg/kg amounted to 5.6% with Hepatitis B virus [7] and 0% with Hepatitis B virus [8]. For the same molecule, the inhibition in vivo at 0.025 mg/kg in the data set with Hepatitis B virus [2] and in the data set on Hepatitis B virus [4] was 0% each time. The inhibition in vivo at 0.1 mg/kg in the data set on Hepatitis B virus [9] amounted to 3.4%; in the data set with Hepatitis B virus [10], 0%.
Regarding `C/C=C(/C)C(=O)O[C@H]1c2cc(OC)c(OC)c(OC)c2-c2c(cc3c(c2O)OCO3)C[C@H](C)[C@@]1(C)O` [SCHISANWILSONIN A], the inhibition in vivo at 0.05 mg/kg in the data set on Hepatitis B virus [1] was found to be 5.3%; in the data set on Hepatitis B virus [5], 14%. Also, the inhibition in vivo at 0.025 mg/kg with Hepatitis B virus [2] and in the data set with Hepatitis B virus [4] was 0% throughout. For the same molecule, the inhibition at 200 ug/mL in data set [3] was at least 25%. The inhibition at 100 ug/mL in data set [6] was at least 25%.
Turning to `COc1cc2c(c(OC)c1OC)-c1c(cc3c(c1O)OCO3)C[C@H](C)[C@@](C)(O)[C@H]2OC(=O)C(C)C` [SCHISANWILSONIN E], the inhibition in vivo at 0.05 mg/kg in the data set with Hepatitis B virus [1] and in the data set with Hepatitis B virus [5] was 0% each time. The inhibition in vivo at 0.025 mg/kg in the data set on Hepatitis B virus [2] and in the data set with Hepatitis B virus [4] was 0% in each case. Also, the inhibition at 200 ug/mL in [3] is at least 25%. Moreover, the inhibition in vivo at 0.1 mg/kg in the data set with Hepatitis B virus [9] worked out at 2%; in the data set on Hepatitis B virus [10] it was 0%.
For the molecule `COc1cc2c(c(OC)c1OC)-c1c(cc(OC)c(OC)c1OC)C[C@H](C)[C@H](C)C2` [SCHISANDRIN A], the inhibition in vivo at 0.05 mg/kg came to 8.8% with Hepatitis B virus [1] and 0% with Hepatitis B virus [5]. The figures for the inhibition in vivo at 0.2 mg/kg in the data set with Hepatitis B virus [7] and with Hepatitis B virus [8] were 15.9% and 50.3%, respectively. The inhibition in vivo at 0.025 mg/kg with Hepatitis B virus [2] and with Hepatitis B virus [4] was 0% throughout. The inhibition in vivo at 0.1 mg/kg in the data set on Hepatitis B virus [9] is 11.9%; in the data set with Hepatitis B virus [10], 30.9%.
For the molecule `COc1cc2c(c(O)c1OC)-c1c(cc(OC)c(OC)c1OC)C[C@](C)(O)[C@@H](C)C2` [GOMISIN H], the inhibition in vivo at 0.05 mg/kg in the data set on Hepatitis B virus [1] and in the data set on Hepatitis B virus [5] was 0% throughout. Further, the results for the inhibition in vivo at 0.2 mg/kg in the data set with Hepatitis B virus [7] and in the data set on Hepatitis B virus [8] were 1.6% and 11.6%, respectively. Also, the inhibition in vivo at 0.025 mg/kg with Hepatitis B virus [2] and in the data set on Hepatitis B virus [4] was 0% in each case. Further, the values for the inhibition in vivo at 0.1 mg/kg with Hepatitis B virus [9] and in the data set with Hepatitis B virus [10] were 0% and 3.7%, respectively.
For `C/C=C(\C)C(=O)O[C@H]1c2cc(OC)c(OC)c(OC)c2-c2c(cc3c(c2O)OCO3)C[C@H](C)[C@@]1(C)O` [SCHISANWILSONIN B], the inhibition in vivo at 0.05 mg/kg in the data set with Hepatitis B virus [1] worked out at 0%; with Hepatitis B virus [5], 9.2%. Besides, the inhibition in vivo at 0.025 mg/kg in the data set with Hepatitis B virus [2] came out at 0%; with Hepatitis B virus [4], 0.6%. The inhibition at 200 ug/mL in data set [3] is at least 25%. In addition, the inhibition in vivo at 0.1 mg/kg in the data set on Hepatitis B virus [9] was 18.1%; with Hepatitis B virus [10] it was 7.4%.
`COc1cc2c(c(O)c1OC)-c1c(cc(OC)c(OC)c1OC)C[C@@H](C)[C@@H](C)C2` [SCHISANHENOL]: the inhibition in vivo at 0.025 mg/kg in the data set on Hepatitis B virus [2] was found to be 45%; in the data set with Hepatitis B virus [4], 0%. Also, the inhibition at 200 ug/mL in [3] is at least 25%. Moreover, the inhibition at 50 ug/mL in data set [11] was at least 25%. The inhibition at 100 ug/mL in [6] is at least 25%.
